{"source": "paper PMC12505902", "about": "“Inhibitors of trehalose-6-phosphate synthase activity in fungal pathogens compromise thermal tolerance pathways” (mBio, 2025)", "system": "C. neoformans H99", "assay": "Epsilometer test (E-test) with fluconazole strips", "format": "cell-based", "settings": "YPD plates with 4456dh, fluconazole E-test strip, 37°C, 72 h, dose-dependent", "protocol": "Inhibitors of Tps1 may work synergistically with known antifungal drugs. In C. glabrata, the trehalose biosynthesis mutant, tps2Δ, is more susceptible to fluconazole at 37°C ([40]). Therefore, we hypothesized that there might be synergy between 4456dh and fluconazole.\n169 different concentrations (0.5mM, 1mM, and 5mM) and one was used as untreated control.\n170 tps1/ tps1 deletion mutant was used as a negative control for filamentation in these assays. 10 µl\n171 of cell suspension was directly used for imaging the filamentation status of the cells using the\n172 Zeiss Axio Scope microscope attached to the Axiocam at 40X magnification. The images were\n173 processed using Fiji (8) for the final presentation.\n174 Epsilometer Test (E-test)\n175 C. neoformans wild type (H99) was incubated in a shaking culture of YPD medium for 18 h at\n176 30 °C. The culture was diluted to an OD600 0.6, diluted 10-fold in PBS, and 100 µL was spread\n177 onto 60 X 15 mm YPD agar plates prepared with different concentrations of 4456dh. After the […]\n190 (Zeiss). The size of the capsule of > 100 cells per 4456dh treatment was quantified using Image […]\n247 was measured using a colorimetric glucose assay after treatment of cultures with trehalase. […]\n249 Supplemental Figure 11. Quantification of capsule formation in C. neoformans treated with\n250 4456dh. Images taken were analyzed with ImageJ. […]\n251 were analyzed. […]", "data": [{"compound": "Cn1cc(-c2csc(NC(=O)Cc3ccccn3)n2)cn1", "note": "[Compound 4456dh]", "values": [{"measurement": "synergy with fluconazole", "result": "detected synergy"}]}]}
